Assay results: patent US20150037394A1, “DRUG DELIVERY FORMULATIONS” (King's College London, priority 2011, published 2015)
Counter-ions that a name gives are not always drawn.

Key:
[1] = http://www.drugbank.ca/; cited from earlier work
[2] = Visually determined saturated solubility in various solvents; format: physicochemical
Experimental: The solubility experiments were performed by weighing 0.5±0.05 g of each excipient into glass vials (28 mL). The API (5.0±0.5 mg) was weighed by difference on a plastic weigh boat and transferred into the corresponding vial. […] Once saturation was achieved the mg/g API to solvent ratio was recorded.

[3] = literature sources; sildenafil base value marked experimentally determined; cited from earlier work
[4] = after 15 minutes exposure to an infrared bulb; cited from earlier work

Visually determined saturated solubility ([2]; Solvent Arlasolve DMI) [mg/g] | Visually determined saturated solubility ([2]; Solvent Diethyl Ether) [mg/g] | Visually determined saturated solubility ([2]; Solvent EtOH) [mg/g] | Visually determined saturated solubility ([2]; Solvent IPA) [mg/g] | Visually determined saturated solubility ([2]; Solvent Isoamyl Alcohol) [mg/g] | Visually determined saturated solubility ([2]; Solvent MeOH) [mg/g] | Visually determined saturated solubility ([2]; Solvent PEG-400) [mg/g] | Visually determined saturated solubility ([2]; Solvent PG) [mg/g] | Visually determined saturated solubility ([2]; Solvent Phenoxyethanol) [mg/g] | Visually determined saturated solubility ([2]; Solvent Transcutol P) [mg/g] | Structure (SMILES) | Log P [1] | mg/ml figure listed among physicochemical properties (solubility) [3] [mg/mL] | Fold increase in permeation [4]
<0.29 | <0.54 | <0.35 | <0.34 | <0.31 | 0.29 to 0.62 | 0.799 to 1.07 | 1.66 to 2.39 | 0.54 to 1.08 | <0.30 | Nc1nc2c(ncn2COCCO)c(=O)[nH]1 [Acyclovir] | −1.56 | – | –
– | – | – | – | – | – | – | – | – | – | O=C(O)Cc1ccccc1Nc1c(Cl)cccc1Cl [Diclofenac diethyl amine] | – | 4.1 | –
57.90 to 110.45 | 21.28 to 49.89 | 31.60 to 62.79 | 29.97 to 58.09 | 34.25 to 53.55 | 34.43 to 68.06 | 28.83 to 51.73 | 10.15 to 20.50 | 34.32 to 81.12 | 108.73 to 162.17 | O=C(O)Cc1ccccc1Nc1c(Cl)cccc1Cl [Diclofenac free acid] | – | – | –
– | – | – | – | – | – | – | – | – | – | CCCc1nn(C)c2c(=O)[nH]c(-c3cc(S(=O)(=O)N4CCN(C)CC4)ccc3OCC)nc12 [Sildenafil base] | – | < 0.83 | –
– | – | – | – | – | – | – | – | – | – | O=[N+]([O-])OCC(CO[N+](=O)[O-])O[N+](=O)[O-] [nitroglycerin] | – | – | 2-3 fold

Structure (SMILES) | Visually determined saturated solubility ([2]; Solvent Arlasolve DMI) [mg/g] | Visually determined saturated solubility ([2]; Solvent Diethyl Ether) [mg/g] | Visually determined saturated solubility ([2]; Solvent EtOH) [mg/g] | Visually determined saturated solubility ([2]; Solvent IPA) [mg/g] | Visually determined saturated solubility ([2]; Solvent Isoamyl Alcohol) [mg/g] | Visually determined saturated solubility ([2]; Solvent MeOH) [mg/g] | Visually determined saturated solubility ([2]; Solvent PEG-400) [mg/g] | Visually determined saturated solubility ([2]; Solvent PG) [mg/g] | Visually determined saturated solubility ([2]; Solvent Phenoxyethanol) [mg/g] | Visually determined saturated solubility ([2]; Solvent Transcutol P) [mg/g] | Log P [1] | mg/ml figure listed among physicochemical properties (solubility) [3] [mg/mL] | Fold increase in permeation [4]
CCCc1nn(C)c2c(=O)[nH]c(-c3cc(S(=O)(=O)N4CCN(C)CC4)ccc3OCC)nc12 [Sildenafil citrate] | <0.88 | <0.90 | 0.54 to 1.06 | <1.27 | <0.45 | 6.60 to 10.02 | 3.85 to 6.32 | 1.90 to 2.86 | 6.56 to 9.88 | 2.14 to 2.85 | – | – | –
